Measured values: PMC8399913, “Development of Arteannuin B Sustained-Release Microspheres for Anti-Tumor Therapy by Integrated Experimental and Molecular Modeling Approaches” (Pharmaceutics, 2021)
Where two headings read alike, the source gives them in different places.

Assays:
[1] = system: A549 cells; assay: Anti-tumor cell proliferation activity (MTT method); type: cell-based, human; conditions: mean ± SD, n = 3
Procedure: The human non-small cell lung cancer (NSCLC) cell line (A549) was from American Type Culture Collection (ATCC, Manassas, VA, USA). RPMI-1640 medium and fetal calf serum (FBS) were from Gibco Life Technologies (Grand Island, NY, USA). A549 cells were inoculated in RPMI 1640 medium (containing 10% FBS) in a 37 °C, 5% CO2 cell incubator for culture and storage.
A549 cells were seeded into a 96-well plate at a concentration of 5 × 10^3 per well. AB and ABMs were prepared with DMSO and a specific solvent to make the final concentration per well was 6.25, 12.5, 25, 50, and 100 μM. Here, the dosage of AB in ABMs is calculated according to the actual cumulative release amount in the solution, which is calculated as 55% in 96 h. In the experiment, the control group consisted of cells treated with DMSO and a specific solvent of ABMs and cells without any treatment. The MTT method was used to measure the optical density (OD) values of the cells at 24, 48, 72, and 96 h after treatment. The inhibition rate (IR) of each group of samples on tumor cell growth was calculated according to the following equation:(6) IR(%)=OD(solvent)−OD(exp)/OD(solvent)×100% where OD(solvent) is the mean OD of the solvent group and OD(exp) is the mean OD of the experimental group.
A dose–response curve could be obtained with different concentrations of the samples on the tumor cell growth inhibition, from which the half-inhibition concentration (IC50) of the sample can be obtained. There are five replicate holes in each group, and the average value of the five holes was taken. Three parallel experiments were carried out for each sample, and the results were expressed as mean ± standard deviation (mean ± SD). According to the inhibition rate of each group, the IC50 of AB and ABMs at each time point was calculated by the statistical software IBM SPSS Statistics 20.

[2] = system: mouse lung cancer metastasis models; assay: Preliminary experiments: mouse lung cancer metastasis models; type: in vivo
[3] = system: normal human embryonic liver cells L-02; assay: Preliminary experiments: toxicity to normal cells; type: cell-based
[4] = Tolerance of AB dissolved in Tween-80, ethanol and PEG-40; type: in vivo
[5] = parameters: method as in doi:10.1002/cjoc.19830010106; conditions: cited from earlier work
[6] = PK study in SD rats (AB plasma concentration by LC-MS); type: in vivo, Sprague-Dawley rats; conditions: 3.5 mg/kg; for Cmax / half-life: Sprague-Dawley, rat, plasma
Procedure: There were 9 SD rats equally separated into three groups. The first two groups were injected with AB at a dose of 3.5 mg/kg, through different injection routes, either subcutaneous or intramuscular injections. Collect whole blood from the jugular vein of each rat one day before administration and 0, 0.08, 0.16, 0.25, 0.5, 1, 2, 4, 6, and 24 h after administration. The third group was a subcutaneous injection of ABMs with a dose of 50 mg/kg. The whole blood was collected from the jugular vein of each rat one day before the administration and 0.08, 0.25, 0.5, 1, 2, 4, 6, 24, 72, 168, and 240 h after administration. A 1.0 mL disposable syringe was used, and the blood volume was 0.2 mL each time. The whole blood sample was placed in a centrifuge tube (1.5 mL, Xinkang Medical, Taizhou, Jiang Su, China) containing 2000 KIU aprotinin and EDTA-K2 anticoagulant. Turn the centrifuge tube upside down to mix the anticoagulant with the blood thoroughly. Before centrifugation, it should be stored in a pre-cooled CoolRack module (Rack M30, Corning, NY, USA) on wet ice and centrifuged within 15 min after collection. Centrifugation was performed at 4000 rpm, 15 min, 4 °C. After centrifugation, the plasma was separated, the supernatant transferred to the label sample tube (the transfer process needs to be operated on ice), and the sample was checked and stored in the −80 °C refrigerator until analysis.
LC-MS spectrometry (TQ XS, Waters, Milford, MA, USA) was used to detect the plasma concentration of AB. The electrospray ion source (ESI+) in positive ion mode has an ion source temperature of 150 °C, a solvent removal temperature of 500 °C, and a capillary voltage of 0.5 kV. Multiple reaction monitoring (MRM) mass spectrometry parameters are: AB, m/z 249.1→189.1, cone voltage 20 V, collision voltage 10 eV; aripiprazole-D8 (internal reference), m/z 456.3→293.2, the cone voltage is 20 V, and the collision voltage is 25 eV.
SD male rat plasma 50 μL and 200 μL of precipitant (0.1% formic acid in acetonitrile, containing 0.2 ng/mL aripiprazole-D8 as an internal reference) was added into a 96-well plate, and the plate was shaken at 750 rpm (Compact Digital MicroPlate Shaker, Thermo fisher, Waltham, MA, USA) for 10 min. Next, the sample was centrifuged (Legend Micro 21R, Thermo fisher, Waltham, MA, USA) at 4200 rpm for 25 min. After centrifugation, 60 μL of the supernatant was added to a 96-well plate, and then 140 μL of pure water was added, and the plate was shaken at 750 rpm for 5 min before the sample was injected for detection.
HPLC was equipped with a C18 column (Waters, BEH, 130 Å, 2.1 × 50 mm, 1.7 μm), and the mobile phase consisted of elution A (0.1% w/v citric acid in 5%w acetonitrile aqueous solution) and elution B (0.1% w/v citric acid in 95%w acetonitrile aqueous solution) at the ratio of 70:30 v/v. The flow rate was set at 1 mL/min, and the injection volume was 10 μL. The column temperature was set at 60 °C.

[7] = system: HT-29, HepG2, SGC-7901, A549, K562, B16-F10, and Du145 cells; assay: Preliminary experiments: tumor cell proliferation; type: cell-based
[8] = cited from earlier work
[9] = system: A549 xenograft tumor; assay: In vivo anti-tumor activity, A549 xenograft tumor model; parameters: species or system BALB/c nude mice; conditions: 3 mg/kg once every 3 d; after four weeks
Procedure: A549 xenograft tumor model was obtained by subcutaneously injecting 1 × 10^6 cells (A549) into BALB/c nude mice. When the average size of the tumor reached about 100 mm^3, the tumor-bearing mice were randomly divided into 6 groups (6 mice in each group). The average size of tumors was calculated according to the equation 0.5 × a × b × b (a is the length, b is the width). The 700, 350, and 175 mg/kg dose groups of the ABMs were suspended in a specific solvent and then administered subcutaneously once a week, 4 times in total. […] The vehicle (microsphere without AB) group was given once a week for a total of 4 times. The model (saline) group was given once a day as a control. Meanwhile, a group of mice without any treatment (WT group) was selected as the standard group for comparison. The changes in food intake, water consumption, and mental state of the nude mice were observed and recorded every day after administration. The body weight and tumor size of the tumor-bearing mice were measured twice a week, and the relative tumor volume (RTV) of the nude mice was calculated by Equation (7). RTV = Vt/V0(7) where Vt is the tumor volume at each measurement and V0 is the tumor volume before administration. The relative tumor growth rate T/C (%) was calculated according to the following equation to evaluate the anti-tumor activity of each group. (8) T/C(%)=TRTV/CRTV×100%

SMILES: C=C1C(=O)O[C@@]23[C@H]1CC[C@@H](C)[C@@H]2CC[C@@]1(C)O[C@@H]31 [AB, Arteannuin B]
- IC50 ([1]; 96 h (day four)): 16.2 ± 4.78 µM
- IC50 ([1]; Homo sapiens, A549, 24 h, 24 h): 211 ± 63.2 µM
- IC50 ([1]; Homo sapiens, A549, 48 h, 48 h): 53.1 ± 22.5 µM
- IC50 ([1]; Homo sapiens, A549, 72 h, 72 h): 27.5 ± 6.71 µM
- IC50 ([1]; Homo sapiens, A549, 96 h, 96 h (day four)): 16 µM
- therapeutic effect [2]: good therapeutic effect
- toxicity to normal cells [3]: no obvious toxicity
- tolerance after administration [4]: significant intolerance symptoms
- antimalarial activity [5]: no antimalarial activity
- Cmax ([6]; male SD rats, IM, mean ± SEM): 74.5 ± 34.2 ng/mL
- half-life ([6]; male SD rats, IM, mean ± SEM, read-out: t1/2 (converted)): 2.3 h
- Cmax ([6]; male SD rats, SC, mean ± SEM): 236 ± 100 ng/mL
- half-life ([6]; male SD rats, SC, mean ± SEM, read-out: t1/2 (converted)): 1.15 h
- AUClast ([6]; male SD rats, IM, mean ± SEM): 0.618 ± 0.131 ng·days/mL
- AUClast ([6]; male SD rats, SC, mean ± SEM): 2.538 ± 0.842 ng·days/mL
- half-life ([6]; male, rats, read-out: elimination half-life (converted)): ~1 h
- AUClast from subcutaneous injection relative to intramuscular injection ([6]; rats): about four times that of intramuscular injection
- proliferation of tumor cells [7]: inhibit the proliferation
- elimination half-life [8]: about 1 h
- bioavailability ([8]; in animals): 19–35%

SMILES: N.N.[Cl][Pt][Cl] [DDP, Cis-platinum diamine-dichloride]
- tumor size (weight of dissected tumor) [9]: 0.38 ± 0.04 g
